PMC8175350, “Drug repurposing screens identify chemical entities for the development of COVID-19 interventions” (Nature Communications, 2021)
Several values for one entry are separate records, joined by “and”; a condition that tells them apart may be missing. Equal values may be shown once. Read-outs that look alike come from different tables or passages of the source.

Columns and labels:
[1] = system: SARS-CoV-2; test: microbe, parasite or virus in culture; type: cell-based; details: for %infected: replicate wells n=1-3
[2] = Uninfected HeLa-ACE2 24 h live/dead cytotoxicity counter screen; type: cell-based, human; details: human, uninfected HeLa-ACE2 cells
[3] = system: HeLa-ACE2 cells; test: as above; type: cell-based, human; details: for cytotox: HeLa-ACE2, replicate wells n=1-3
[4] = system: SARS-CoV-2; test: microbe, parasite or virus in culture; type: cell-based; details: for %infected: Calu-3, replicate wells n=1-3; for EC50: read-out: Calu-3 SARS-CoV-2 EC50
[5] = system: SARS-CoV-2; test: microbe, parasite or virus in culture; type: cell-based; details: for SARS-CoV-2 % infected cells: 10 µM after 1 h infection; for TOA: HeLa-ACE2, replicate wells n=1-3
[6] = system: SARS-CoV-2; type: cell-based
[7] = system: HeLa-ACE2 cells; test: Total cell count in the HeLa-ACE2 TOA assay; type: cell-based; details: Homo sapiens
Excerpt: Supplement 41467_2021_23328_MOESM3_ESM.xlsx, sheet "Table S1" | column: HeLa-ACE2 TOA cell count

[8] = system: HeLa-ACE2 cells; test: cells; details: Homo sapiens
[9] = system: Calu-3 cells; test: cells; details: Homo sapiens
[10] = system: COVID-19; details: shortened from 15; ref [7]; cited from earlier work
[11] = system: COVID-19; details: ref [9]; cited from earlier work
[12] = in vitro; details: human
[13] = system: Calu-3 cells; test: Uninfected Calu-3 48 h Cell-Titer Glo cytotoxicity counter screen
[14] = curve plateau at infinite concentration

CCC(CC)COC(=O)[C@H](C)N[P@](=O)(OC[C@H]1O[C@@](C#N)(c2ccc3c(N)ncnn23)[C@H](O)[C@@H]1O)Oc1ccccc1 [Remdesivir]
increase in EC50 from MOI = 0.09 to MOI = 2.2 ([1]; HeLa-ACE2): 2.7 fold
EC50 ([1]; HeLa-ACE2, individual values of 9 independent experiments, read-out: EC50 (µM), Fig 1c): 191 nM and 83 nM and 141 nM and 130 nM and 138 nM (2×)
%infected ([1]; HeLa-ACE2, concentration log[M] -5.61909): -99.4999% and -95.8005% and -94.7545% and -97.535% and -100.056% and -100.005% and -100.014% and -99.12% and -100%
%infected ([1]; HeLa-ACE2, concentration log[M] -6.09621): -99.2124% and -98.9733% and -96.3176% and -99.76% and -100.229% and -100.013%
%infected ([1]; HeLa-ACE2, concentration log[M] -8.48182): 18.582% and -4.2719% and -2.02% and 15.6179% and -5.577% and 7.137% and 7.4% and 8.398% and -2.488%
%infected ([1]; HeLa-ACE2, concentration log[M] -8.95894): 3.102% and 6.636% and 1.634% and -11.6076% and 6.069% and -5.672% and -8.653%
Emax ([1]; Severe acute respiratory syndrome coronavirus 2, HeLa-ACE2, 24 h, curve plateau at infinite concentration, read-out: HeLa-ACE2 CoV-2 Sinf Average): 100%
EC50 ([1]; Severe acute respiratory syndrome coronavirus 2, HeLa-ACE2, HeLa-ACE2, MOI 0.51, read-out: EC50): 126 nM
EC50 ([1]; Severe acute respiratory syndrome coronavirus 2, HeLa-ACE2, HeLa-ACE2, MOI 1.1, read-out: EC50): 145 nM
EC50 ([1]; Severe acute respiratory syndrome coronavirus 2, HeLa-ACE2, HeLa-ACE2, MOI 2.2, read-out: EC50): 223 nM
EC50 ([1]; Severe acute respiratory syndrome coronavirus 2, HeLa-ACE2, reconfirmed hits, read-out: HeLa-ACE2 SARS-CoV-2 EC50): 127 nM
EC50 ([1]; Severe acute respiratory syndrome coronavirus 2, HeLa-ACE2, value in brackets*: remdesivir control, read-out: HeLa-ACE2 SARS-CoV-2 EC50): 123 nM
CC50 at 24 h ([2]; geomean, read-out: uninfected HeLa-ACE2 cytotoxicity CC50): > 9670 nM
CC50 at 24 h ([2]; reconfirmed hits, read-out: HeLa-ACE2 Uninf. cells CC50): 9970 nM
CC50 at 24 h ([2]; value in brackets*: remdesivir control, read-out: HeLa-ACE2 Uninf. cells CC50): 9670 nM
CC50 at 24 h ([2]; read-out: HeLa-ACE2 uninfected cytotoxicity CC50 GeoMean): 9970 nM
cytotox ([3]; concentration log[M] -5): -48.6076 and -58.6844 and -51.3625 and -48.213 and -50.9294 and -56.7143 and -47.8141 and -43.3369 and -36.9299
cytotox ([3]; concentration log[M] -5.47712): -19.1561 and -17.8418 and -30.9661 and -14.3691 and -23.5688 and -36.4286 and -15.3846 and -28.169 and -29.0323
cytotox ([3]; concentration log[M] -5.95424): 6.751 and 11.4789 and 9.414 and -2.699 and 2.9 and 4.429 and 8.301 and 5.85 and 4.672
cytotox ([3]; concentration log[M] -6.43136): -5.57 and 5.718 and -0.9083 and 5.1787 and 2.305 and -8.143 and -9.851 and -10.8342 and 4.561
cytotox ([3]; concentration log[M] -6.90849): 2.8692 and 11.5649 and -1.239 and 5.033 and 15.0929 and 0 and 8.342
cytotox ([3]; concentration log[M] -7.38561): -3.882 and -2.966 and 0.578 and 12.6185 and 0.223 and 8.571 and 4.759 and -6.934 and 4.338
cytotox ([3]; concentration log[M] -7.86273): 4.3038 and -8.727 and 10.4046 and -9.847 and -4.535 and -6.857 and 3.25 and -6.674
cytotox ([3]; concentration log[M] -8.33985): 0.2532 and 0.129 and -1.817 and 2.115 and -17.6208 and -2.857 and -8.744 and 4.117 and 1.669
HeLa-ACE2 uninfected cytotoxicity Sinf Average [3, 14]: -86%
%infected ([4]; concentration log[M] -5): -100% and -99.897% and -100.088% and -98.7564% and -99.5799% and -100.046% and -100.098% and -100.338% and -99.9472%
%infected ([4]; concentration log[M] -5.47712): -99.1601% and -98.4923% and -99.234% and -99.2295% and -99.4568% and -99.7507% and -99.3361% and -99.5394% and -98.7541%
%infected ([4]; concentration log[M] -5.95424): -89.5337% and -93.208% and -92.5628% and -91.8668% and -95.3312% and -93.4282% and -90.0849% and -90.1886% and -82.0673%
%infected ([4]; concentration log[M] -6.43136): -39.9603% and -66.0539% and -61.9632% and -57.8703% and -42.505% and -37.1362% and -41.0562% and -18.9015% and -48.5538%
%infected ([4]; concentration log[M] -6.90849): 15.313% and 14.726% and -3.639% and 30.6752% and -6.396% and 10.9651% and -1.713% and -1.879%
%infected ([4]; concentration log[M] -7.38561): 1.995% and -3.779% and 16.4097% and -7.2105% and 10.833% and 28.7058% and 9.608% and 17.5254%
%infected ([4]; concentration log[M] -7.86273): 12.1902% and -3.292% and 25.9949% and 14.3562% and 4.371% and -33.8895% and 13.327% and 8.365% and 21.3189%
%infected ([4]; concentration log[M] -8.33985): -5.4528% and 0% and -9.776% and -9.382% and 5.183% and 10.3172% and 15.4186% and 28.7222%
Emax ([4]; Severe acute respiratory syndrome coronavirus 2, Calu-3, 48 h, curve plateau at infinite concentration, read-out: Calu-3 CoV-2 Sinf Average): 102%
EC50 ([4]; Severe acute respiratory syndrome coronavirus 2, Calu-3, reconfirmed hits): 606 nM
EC50 ([4]; Severe acute respiratory syndrome coronavirus 2, Calu-3, value in brackets*: remdesivir control): 444 nM
SARS-CoV-2 % infected cells ([5]; 4:00:00 post infection): 0.0558% and 0.1777% and 0.2107%
SARS-CoV-2 % infected cells ([5]; 5:00:00): 0.7242% and 1.236% and 0.5657%
SARS-CoV-2 % infected cells ([5]; 6:00:00): 1.289% and 0.8606%
SARS-CoV-2 % infected cells ([5]; 7:00:00): 0.8435% and 0.9162%
SARS-CoV-2 % infected cells ([5]; 8:00:00): 1.114% and 1.68%
SARS-CoV-2 % infected cells ([5]; 10:00:00): 1.9707% and 2.635%
SARS-CoV-2 % infected cells ([5]; 11:00:00): 2.255% and 2.403%
SARS-CoV-2 % infected cells ([5]; 12:00:00): 4.554%
SARS-CoV-2 % infected cells ([5]; 24:00:00): 1.211% and 0.9586%
activity when treatment was initiated at 1 hpi ([5]; HeLa-ACE2, 10 µM): effectively blocked the infection
TOA ([5]; concentration log[M] -5.61909): -92.6138 and -80.8583 and -88.199 and -76.7514 and -93.5448 and -83.4805 and -80.3661 and -74.8437 and -99.8898
TOA ([5]; concentration log[M] -6.09621): -68.7737 and -49.7255 and -48.7992 and -40.2692 and -44.1304 and -40.198 and -47.0122 and -58.4412 and -51.4261
TOA ([5]; concentration log[M] -6.57334): -20.3161 and -18.1481 and -10.1709 and -1.508 and -0.9303 and -16.8539 and -5.25 and -7.77
TOA ([5]; concentration log[M] -7.05046): -7.493 and -17.8403 and -13.1433 and -19.1912 and -3.289 and -5.355 and 2.9336 and -2.419
TOA ([5]; concentration log[M] -7.52758): -5.952 and 2.422 and 1.456 and -1.724 and -2.397 and 2.2617 and 7.029 and -1.667 and -1.15
TOA ([5]; concentration log[M] -8.0047): 5.958 and 5.629 and 3.068 and -1.8321 and 3.442 and 6.226 and 7.961 and 4.025 and 11.376
TOA ([5]; concentration log[M] -8.48182): 4.28 and 10.7449 and 12.4349 and -4.585 and 4.364 and -1.184 and 4.823 and 5.851 and -1.616
TOA ([5]; concentration log[M] -8.95894): -2.286 and -0.1755 and 11.8345 and -1.884 and 3.08 and 1.621 and -5.04 and -0.06688 and -11.3351
Emax ([5]; Severe acute respiratory syndrome coronavirus 2, HeLa-ACE2, 10 h, curve plateau at infinite concentration, read-out: HeLa-ACE2 TOA CoV-2 Sinf Average): 102%
EC50 ([5]; Severe acute respiratory syndrome coronavirus 2, HeLa-ACE2, read-out: HeLa-ACE2 TOA CoV-2 EC50 GeoMean): 795 nM
EC50 ([5]; Severe acute respiratory syndrome coronavirus 2, HeLa-ACE2, fixed 10 hpi, geomean, read-out: CoV-2 TOA EC50): 770 nM
effect on viral replication in ALI-HBECs [6]: inhibited viral replication
Emax ([7]; HeLa-ACE2, 10 h, curve plateau at infinite concentration, read-out: HeLa-ACE2 TOA cell count Sinf Average): 100%
EC50 ([7]; HeLa-ACE2, read-out: HeLa-ACE2 TOA cell count EC50 GeoMean): > 9610 nM
Emax ([8]; HeLa-ACE2, 24 h, read-out: HeLa-ACE2 cell count Sinf Average): 100%
EC50 ([8]; HeLa-ACE2, read-out: HeLa-ACE2 cell count EC50 GeoMean): > 9600 nM
EC50 ([8]; HeLa-ACE2, read-out: cell count in infection assay EC50, HeLa-ACE2, geomean, ^↑ = increasing dose-response curve): > 1200 nM
Emax ([9]; Calu-3, 48 h, read-out: Calu-3 cell count Sinf Average): 103%
EC50 ([9]; Calu-3, read-out: Calu-3 cell count EC50 GeoMean): 700 nM
EC50 ([9]; Calu-3, read-out: cell count EC50, Calu-3, geomean, ^↑ = increasing dose-response curve): 537 nM
median time to recovery [10]: 11 days
mortality of hospitalized COVID-19 patients [11]: failed to reduce mortality
CC50 ([12]; Calu-3 Uninf. cells CC50 (µM), reconfirmed hits): > 30 µM
CC50 ([12]; Calu-3 Uninf. cells CC50 (µM), value in brackets*: remdesivir control): > 30 µM
CC50 ([12]; Calu-3 uninfected cytotoxicity CC50 GeoMean): > 29.9 µM
CC50 ([12]; cytotoxicity CC50, uninfected Calu-3, geomean): > 30 µM
cytotox ([13]; Calu-3, concentration log[M] -5, replicate wells n=1-3): 10.3923 and -8.975 and 0.952 and 18.306 and 7.959 and -3.54 and 10.6309 and -10.2579 and 5.131
Calu-3 uninfected cytotoxicity Sinf Average [13, 14]: -95%
